Data on 20 compounds can be found in paper PMC8198181, “Evaluation of Substituted N-Phenylpiperazine Analogs as D3 vs. D2 Dopamine Receptor Subtype Selective Ligands” (Molecules, 2021).

As a reminder, the Ki is the dissociation constant of the complex between target and ligand, obtained from inhibition or displacement. As usually defined, the inhibition is the relative decrease from the control value, in per cent.

Molecules are shown by their SMILES. “And” between values parts separate entries of the source, which are not always exact repeats. Equal entries are not always repeated. “Also recorded” adds a separate entry of the source. Where two headings read alike, the source gives them in different places.

The target of assay [1] is T1, human 5-HT1A receptor (Homo sapiens, UniProt P08908).
T1 construct: expressed in transfected cells; host or cells: CHO-K1
T1 sequence (P08908 1-422): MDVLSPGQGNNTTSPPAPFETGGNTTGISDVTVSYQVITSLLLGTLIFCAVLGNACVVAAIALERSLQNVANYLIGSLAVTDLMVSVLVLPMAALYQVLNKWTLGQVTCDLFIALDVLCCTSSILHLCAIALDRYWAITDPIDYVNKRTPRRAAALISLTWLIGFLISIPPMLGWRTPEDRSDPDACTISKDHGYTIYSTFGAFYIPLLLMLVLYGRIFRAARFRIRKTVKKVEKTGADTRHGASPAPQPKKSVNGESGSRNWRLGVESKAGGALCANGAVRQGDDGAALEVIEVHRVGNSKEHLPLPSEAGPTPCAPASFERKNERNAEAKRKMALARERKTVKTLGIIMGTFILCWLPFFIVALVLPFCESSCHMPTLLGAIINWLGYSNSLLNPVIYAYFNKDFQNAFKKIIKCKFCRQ
The experiment in a line: 5-HT1A receptor binding ([3H]8-hydroxy-DPAT displacement, CHO-K1 membranes). Particulars: for 5-HT1A receptor affinity/displacement in words: radioligand displacement assessment at 91 nM; for inhibition at 0.091 µM: single point displacement of [3H]-8-hydroxy-DPAT, 91 nM test compound, CHO-K1, ± S.E.M., n ≥ 3. The procedure:
Because the 5-HT1A receptor is a commonly observed off-site binding site for benzamide N-phenylpiperazine ligands, compounds were simultaneously screened for binding of our compounds at the human 5-HT1A receptor expressed in CHO-K1 cells, using the radioligand [^3H]-8-hydroxy-DPAT (8-OH-DPAT) (Table 2). Based upon the analysis of the displacement assay shown in Table 2, the orthosteric compounds 3c–f appeared to bind with low affinity at human 5-HT1A receptors.
10 μg of membranes from CHO-K1 cells expressing the human 5-HT1A receptor were suspended in 50 mM Tris-HCl, 10 mM MgSO4, 0.5 mM EDTA, and 0.1% (w/v) ascorbic acid, pH 7.4 and test ligands (91 nM for single point radioligand displacement assay and 1 nM to 1 μM for full competition assay) were incubated with 0.25 nM [^3H]8-hydroxy-DPAT (PerkinElmer, Boston, MA, USA) for 60 min at room temperature. The nonspecific binding was determined using 10 μM metergoline (Sigma, St. Louis, MO, USA). After incubation, the bound ligands were filtered using an M-24 Brandel filtration system (Brandel, Gaithersburg, MD, USA), collected on glass fiber papers (Whatman grade 934-AH, GE Healthcare Bio-Sciences, Pittsburgh, PA, USA), and the radioactivity was quantitated using a MicroBeta2 Microplate scintillation counter 2450 (PerkinElmer, Boston, MA, USA).
In general terms: In a radioligand displacement assay an active substance lowers the binding of a labelled ligand.

Assay [2] has as its target T2, D3 dopamine receptor (Homo sapiens, UniProt P35462). Particulars: for D2:D3 Selectivity: ratio of D2 and D3 Ki values (Table 1).
Experimental: Competitive radioligand binding techniques were used to determine the Ki values of ligands at human D2 and D3 dopamine receptors expressed in stably transfected HEK cells (Table 1).
The final radioligand concentration was approximately equal to the Kd value for the binding of the radioligand. […] For each competition curve, triplicates were performed using two concentrations of inhibitor per decade over five orders of magnitude.
The competition curves were modeled for a single binding site using Bs = Bo − ((Bo + L)/(IC50 + L)) where Bs is the amount of ligand bound to receptor and Bo is the amount of ligand bound to receptor in the absence of competitive inhibitor. L is the concentration of the competitive inhibitor. […] The values for Bs and Bo were constrained using experimentally derived values. The IC50 values were converted to equilibrium dissociation constants (Ki) [50, 51]. Mean Ki values ± S.E.M. are reported for at least three independent experiments.
The target in assay [3] is T2, D3 dopamine receptor. The experiment in a line: β-arrestin binding assay (DiscoverX PathHunter, DRD3-U2OS cells). Particulars: human D3, test compound at 10x Ki, normalized to quinpirole. The class given is cell-based. Details: host or cells: U2OS (PathHunter eXpress DRD3-U2OS). The procedure:
(§1) Quinpirole was used as a reference prototypic full agonist and haloperidol was used as a reference prototypic antagonist.
The β-arrestin binding assay was performed using a DiscoverX Pathhunter® kit according to the manufacturer’s instructions. PathHunter® eXpress β-Arrestin GPCR cells are engineered to co-express the ProLink™ (PK) tagged GPCR and the Enzyme Acceptor (EA) tagged β-Arrestin. Activation of the GPCR-PK induces β-Arrestin-EA recruitment, forcing complementation of the two β-galactosidase enzyme fragments (EA and PK). The resulting functional enzyme hydrolyzes substrate to generate a chemiluminescent signal. DRD3-U2OS cells were seeded according to kit instructions into white plastic 96-well plates (provided with the kit) 48 h prior to the assay in a volume of 100 μL/well using the Cell Plating Reagent (CPR) provided. Vehicle or test drug, diluted in CPR, was added to the designated wells and incubated for 90 min at 37 °C. Working detection solution (a component provided with the kit) was added to the wells and incubated for 1 h in the dark at room temperature. As discussed for the cyclase assay, an Enspire Alpha 2390 Multilabel Reader/Luminometer was used to detect the luminescent signal with haloperidol and quinpirole used as reference antagonist and full agonist, respectively.
(§2) Figure 3 Comparison of the Efficacy of Phenylthiophene Analogs for Adenylyl Cyclase Inhibition and β-Arrestin Binding at Human D3 Dopamine Receptors. […] Values were normalized to reference full agonist quinpirole (10,000 nM).

The target of assay [4] is T2, D3 dopamine receptor. The experiment in a line: Forskolin-dependent adenylyl cyclase inhibition assay (cAMP-Glo, HEK cells). The class given is cell-based. Set-up: expressed in transfected cells; host or cells: HEK293. The settings on record: human D3, test compound at 10x Ki, normalized to quinpirole 10,000 nM. The procedure:
as §1
The forskolin-dependent adenylyl cyclase inhibition assay was performed using a cAMP-Glo Assay kit (Promega). For this assay cAMP stimulates protein kinase A (PKA) activity, which leads to a decrease in ATP levels and a decrease in the luciferase-coupled production of light. This is a 96 well plate assay using HEK cells stably transfected to express the human D3 dopamine receptor (10,000 cells/well/0.1 mL complete media). After removing media and rinsing with phosphate buffered saline, cells were incubated with 20 μL of forskolin (6000 nM) and test compound or vehicle. […] After cells, test compound (or vehicle) and forskolin (or vehicle) were incubated for 15 min, cells were lysed using 20 μL lysis buffer (provided with the kit) and mixed for 15 min at room temperature. A cAMP Detection Solution (40 μL) was added to each well, gently mixed for 60 s and incubated at room temperature for 20 min. The Kinase-Glo Solution was added (40 μL) to terminate the PKA reaction. The reaction mixture was gently mixed for 60 s and then incubated at room temperature for 10 min. The remaining ATP was detected via a luciferase reaction. The plates were read using an Enspire Alpha 2390 Multilabel Reader/Luminometer. Haloperidol (200 nM) and quinpirole (10,000 nM) was used as a prototypic reference antagonist and full agonist, respectively.
as §2

The target of assay [5] is T2, D3 dopamine receptor. Set-up: method as in PMID 15582454. The settings on record: cited from earlier work.
Assay [6] addresses human D3 dopamine receptor. The settings on record: read-out: Ki D3 (hD3), previously published; Figure 1 and text; cited from earlier work.

T2 sequence (P35462 whole entry): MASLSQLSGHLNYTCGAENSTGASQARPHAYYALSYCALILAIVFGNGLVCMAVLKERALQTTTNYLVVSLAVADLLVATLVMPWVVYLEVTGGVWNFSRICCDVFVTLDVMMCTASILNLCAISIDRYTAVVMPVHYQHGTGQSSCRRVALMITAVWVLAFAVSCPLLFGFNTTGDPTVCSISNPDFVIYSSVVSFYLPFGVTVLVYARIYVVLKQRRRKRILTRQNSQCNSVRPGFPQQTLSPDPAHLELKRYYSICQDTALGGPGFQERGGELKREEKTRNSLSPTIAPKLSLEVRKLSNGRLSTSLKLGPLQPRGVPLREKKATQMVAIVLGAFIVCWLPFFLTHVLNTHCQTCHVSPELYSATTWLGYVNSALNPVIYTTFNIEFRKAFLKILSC

For `CCCCN1CCN(c2ccccc2F)CC1` [Compound 3a], in assay [1], affinity was put at a Ki of 67.8 ± 4.6 nM, the “5-HT1A receptor affinity/displacement in words” value is listed as “partially displace; also recorded: moderate affinity” and the inhibition at 0.091 µM was 20.3 ± 16.2%. For the same compound, in assay [2], the Ki was determined as 96.2 ± 16.9 nM and the “D2:D3 Selectivity” value is 4.0.
Regarding `CCCCN1CCN(c2cccc(F)c2)CC1` [Compound 3b], in assay [1], the “5-HT1A receptor affinity/displacement in words” value is listed as “partially displace” and the inhibition at 0.091 µM is 36.1 ± 2.1%. For the same compound, in assay [2], the affinity corresponds to a Ki of 1000 ± 118 nM and the “D2:D3 Selectivity” value was determined as 2.5.
Regarding `CCCCN1CCN(c2ccc(F)cc2)CC1` [Compound 3c], the inhibition at 0.091 µM in assay [1] is 5.1 ± 11.2%. In addition, in assay [2], the affinity, expressed as Ki, was 1180 ± 240 nM and the “D2:D3 Selectivity” value stood at 2.6.
The like results for `CCCCN1CCN(c2cc(C#N)ccc2F)CC1` [Compound 3d] were, in that order, -18 ± 11.1%, 726 ± 101 nM and 7.5.
The like results for `CCCCN1CCN(c2ccc(C(F)(F)F)cc2F)CC1` [Compound 3e] were, in that order, -11.6 ± 15.4%, 1410 ± 59.1 nM and 5.3.
For the compound `CCCCN1CCN(c2ccc(F)cc2OCCF)CC1` [Compound 3f], the inhibition at 0.091 µM in assay [1] amounted to 1.7 ± 21.7%. For the same compound, in assay [2], the Ki was found to be 351 ± 42.1 nM and the “D2:D3 Selectivity” value is 1.0.
On to `O=C(NCCCCN1CCN(c2cccc(F)c2)CC1)c1ccc(-c2ccsc2)cc1` [Compound 6b], for which, in assay [1], the “5-HT1A receptor affinity/displacement in words” value is reported as “substantial affinity” and the inhibition at 0.091 µM was 74.7 ± 1.9%. Also, in assay [2], the Ki stood at 7.9 ± 1.4 nM and the “D2:D3 Selectivity” value is recorded as 296. In assay [3], the “efficacy in β-arrestin binding assay” value is recorded as “weak partial agonists”. Besides, in assay [4], the “efficacy in adenylyl cyclase inhibition assay” value is reported as “weak partial agonists”.
On to `O=C(NCCCCN1CCN(c2ccc(F)cc2)CC1)c1ccc(-c2ccsc2)cc1` [Compound 6c], for which the inhibition at 0.091 µM in assay [1] is -7.7 ± 23.5%. Further, in assay [2], the Ki came to 12.4 ± 1.6 nM and the “D2:D3 Selectivity” value worked out at 579. The “efficacy in β-arrestin binding assay” value in assay [3] is “very weak partial agonist/antagonist”. Besides, in assay [4], the “efficacy in adenylyl cyclase inhibition assay” value was “weak partial agonist”.
As for `N#Cc1ccc(F)c(N2CCN(CCCCNC(=O)c3ccc(-c4ccsc4)cc3)CC2)c1` [Compound 6d], the inhibition at 0.091 µM in assay [1] was determined as 2.5 ± 3.5%. In addition, in assay [2], the Ki was found to be 15.5 ± 1.3 nM and the “D2:D3 Selectivity” value is reported as 290. In addition, the “efficacy in β-arrestin binding assay” value in assay [3] is “antagonists”. For the same compound, in assay [4], the “efficacy in adenylyl cyclase inhibition assay” value is “antagonists”.
`O=C(NCCCCN1CCN(c2ccc(C(F)(F)F)cc2F)CC1)c1ccc(-c2ccsc2)cc1` [Compound 6e]: the inhibition at 0.091 µM in assay [1] is 6.1 ± 6.8%. For the same compound, in assay [2], the Ki came out at 43.3 ± 9.2 nM and the “D2:D3 Selectivity” value is over 1800.
The like results for `O=C(NCCCCN1CCN(c2ccc(F)cc2OCCF)CC1)c1ccc(-c2ccsc2)cc1` [Compound 6f] were, in that order, 16.9 ± 24.4%, 6.1 ± 0.2 nM and 67.4.
Regarding `O=C(NCCCCN1CCN(c2ccccc2F)CC1)c1ccc(-c2cscn2)cc1` [Compound 7a], the Ki in assay [1] (full competition curve, [3H]-8-hydroxy-DPAT, at least three experiments, read-out: Ki at 5-HT1A receptor) came to 14.3 ± 7.1 nM. In assay [1], the “5-HT1A receptor affinity/displacement in words” value is “substantial affinity; also recorded: increased affinity” and the inhibition at 0.091 µM is 65.8 ± 5%. Further, in assay [2], the affinity corresponds to a Ki of 2.5 ± 0.22 nM and the “D2:D3 Selectivity” value was 190.
For `O=C(NCCCCN1CCN(c2cccc(F)c2)CC1)c1ccc(-c2cscn2)cc1` [Compound 7b], in assay [1], the “5-HT1A receptor affinity/displacement in words” value is given as “substantial affinity” and the inhibition at 0.091 µM turned out to be 74.1 ± 5.3%. Also, in assay [2], the Ki is 24 ± 5.5 nM and the “D2:D3 Selectivity” value came to 165.
On to `O=C(NCCCCN1CCN(c2ccc(F)cc2)CC1)c1ccc(-c2cscn2)cc1` [Compound 7c], for which the inhibition at 0.091 µM in assay [1] was 12.2 ± 3.1%. Also, in assay [2], the Ki is 28.6 ± 2.1 nM and the “D2:D3 Selectivity” value is given as 140.
For `N#Cc1ccc(F)c(N2CCN(CCCCNC(=O)c3ccc(-c4cscn4)cc3)CC2)c1` [Compound 7d], in that order: -5.6 ± 18.3%, 28.1 ± 0.8 nM and 274.
For the compound `O=C(NCCCCN1CCN(c2ccc(C(F)(F)F)cc2F)CC1)c1ccc(-c2cscn2)cc1` [Compound 7e], the inhibition at 0.091 µM in assay [1] came out at 7.6 ± 6.5%. The compound also returned a Ki in assay [2] of 30.9 ± 2.6 nM. In addition, in assay [3], the “efficacy in β-arrestin binding assay” value was “antagonists”. Also, the “efficacy in adenylyl cyclase inhibition assay” value in assay [4] is “antagonists”.
`O=C(NCCCCN1CCN(c2ccc(F)cc2OCCF)CC1)c1ccc(-c2cscn2)cc1` [Compound 7f]: in assay [1], the “5-HT1A receptor affinity/displacement in words” value is listed as “substantial affinity” and the inhibition at 0.091 µM came out at 37.1 ± 24.4%. Also, in assay [2], the Ki was 4.8 ± 0.28 nM and the “D2:D3 Selectivity” value was 72.9.
Turning to `O=C(NCCCCN1CCN(c2ccccc2OCCF)CC1)c1ccc(-c2ccsc2)cc1` [LS-3-134], the “% of maximum efficacy, adenylyl cyclase inhibition assay” value in assay [5] is 35% and 34.4 ± 1.7%.
With `O=C(NCCCCN1CCN(c2cccc(Cl)c2Cl)CC1)c1ccc2c(c1)Cc1ccccc1-2` [NGB 2904], the Ki in assay [6] is 2 nM.
`O=C(NCCCCN1CCN(c2cccc(Cl)c2Cl)CC1)c1ccc(-c2ccccn2)cc1` [PG 01037]: the Ki in assay [6] is 0.7 nM.
